# Source: patent publication US20080069857A1, “Compositions And Methods For Inhibiting Adhesions” (priority 2006, published 2008)
# Tests used:
# [1] = United States Pharmacopoeia classification "practically insoluble"; cited from earlier work
# [2] = Budesonide solubility in saline; format: physicochemical; details: saline or isotonic, thermodynamic from solid, 37° C., read-out: saturation solubility in saline
# Method: The maximum solubility of budesonide in saline was determined as described (Gennaro A R, editor. Remington: The Science and Practice of Pharmacy. 20th ed. Philadelphia, Pa.: Lippincott Williams & Wilkins, 2000, which is incorporated herein by reference). First, increasing amounts of budesonide were mixed with saline to provide budesonide concentration in the system from 25 mg/ml to 0.002 mg/ml. The mixtures were constantly stirred at 37° C. for 24 hours, and then centrifuged at 12,000 rpm for 5 minutes to separate the solution phase from the solid phase. The budesonide concentrations in the solution phase were measured by High Performance Liquid Chromatography (HPLC). The saturation solubility of budesonide in saline was determined by extrapolating the line segment, of which slope was 0, to y-axis.
# In a separate experiment, budesonide-saline 0.13 mg/ml was prepared as described above, divided into 1 ml aliquots, and incubated at 37° C. with constant stirring. At timed intervals, an aliquot of budesonide-saline was taken and centrifuged at 12,000 rpm for 5 minutes to separate 0.8 ml of supernatant for HPLC analysis. The remaining 0.2 ml, potentially containing precipitated budesonide, was dissolved in 0.8 ml acetonitrile and analyzed with HPLC. […]
# [3] = test system: IL-6 production by primary mouse macrophages; assay: IL-6 production by LPS-challenged macrophages; format: cell-based, mouse (C57/B16); details: macrophages stimulated with LPS
# Method: (§1) C57/B16 mice were purchased from Taconic (Hudson, N.Y.). 2 ml of 3% (w/v) sterile thioglycollate solution (DIFCO Laboratories, Detroit, Mich.) was injected into the peritoneal cavity. Four days after injection, the mice were euthanized by CO2, and 6 ml of ice-cold PBS buffer containing 5 mM EDTA was injected. After agitating the peritoneum with forceps, a macrophage-containing solution was aspirated. The cells were placed immediately into iced DMEM on ice prior to washing, counting and plating. Approximately 10^7 cells per mouse were obtained.
# (§2) Non-adherent cells were removed by washing with 200 μl/well PBS buffer. Then 100 μl of DMEM with 10% FBS and 100 μl of medium pre-incunated with hydrogels (Sec. 2.2.9), or known concentrations of dexamethasone, were added to the adherent macrophages in each well. After incubation for 24 h at 37° C. in 5% CO2, 25 μl of 900 ng/ml of LPS (Sigma, St. Louis, Mo.; Catalog #L-4391) was added to each well to a final concentration of 100 ng/ml. After incubation for a further 16 h, the media were collected and stored at −80° C. until analyzed. The concentration of TNF-α, IL-6, and dexamethasone in those media were measured by ELISA (enzyme-linked immunosorbent assay). The ELISA kits for TNF-α, IL-6, and dexamethasone were purchased from R&D Systems (DuoSet, Cat DY406), BioLegend (Mouse IL-6 ELISA MAX™ Set (Deluxe)), and Neogen Corporation, respectively.
# [4] = test system: TNF-α production by primary mouse macrophages; assay: TNF-α production by LPS-challenged macrophages; format: cell-based, mouse (C57/B16); details: macrophages stimulated with LPS
# Method: as §1, §2
# [5] = test system: Human mesothelial cells (ATCC, CRL-9444)
# Method: In vitro cell viability assay: Human mesothelial cells (ATCC, CRL-9444) were cultured in Medium 199, containing Earle's salts, L-glutamine, and 2.2 g/L sodium bicarbonate and supplemented with 3.3 nM epidermal growth factor, 400 nM hydrocortisone, 870 nM insulin, 20 mM HEPES, and 10% fetal bovine serum. Cells from passage 5 through 25 were used for the following studies. Mesothelial cells were seeded into 24-well plates at a density of 50,000 cells per well in 1 ml of culture medium. […] After varying periods of incubation in the presence of the hydrogels, cell viability was assessed with an MTT assay kit (Promega CellTiter 96 Non-Radioactive Cell Proliferation Assay).
# Cell proliferation assay. […] After varying periods of incubation in the presence of the hydrogels, cell viability was assessed with an MTT assay kit (Promega CellTiter 96 Non-Radioactive Cell Proliferation Assay).
# Mesothelial cells were grown and maintained in a complete growth medium (GIBCO: Medium199 with Earle's BSS, 0.75 mM L-glutamine and 1.25 g/L sodium bicarbonate supplemented with 3.3 nM epidermal growth factor, 400 nM hydrocortisone, 870 nM insulin, 20 mM HEPES and 10% fetal bovine serum) at 37° C. in 5% CO2. […] The purple formazan produced by active mitochondria was solubilized using 1 ml detergent solution and then read at 570 nm by plate reader (Molecular Devices: SpectraMax 384, Union City, Calif.). […]
# [6] = test system: peritoneal adhesions; details: 1 week after second laparotomy
# Method: Repeated laparotomy model. Female albino rabbits (Oryctolagus cuniculus; New Zealand White) (3±0.5 kg) were used. The first laparotomy and post-operation care were performed as described above. A 2nd laparotomy was performed after 1 week. On examination prior to the 2nd laparotomy, animals were excluded from the 2nd laparotomy for the following: (i) loss of more than 15% of body weight since the 1st laparotomy; (ii) poor feeding. On laparotomy, adhesions were scored as previously then lysed (cut). The previously excised abdominal wall was re-abraded 50 times unidirectionally, and the cecum surface between 6-12th haustra was re-abraded 150-200 times bidirectionally using a sterile brush until a bleeding bed was obtained.
# Thirty animals were assigned randomly to experimental groups and test materials were applied on the injured areas. The operator was blinded as to the nature of the materials. HA-ADH and HA-CHO were sterilized by germicidal UV illumination for 2 hours and dissolved in 5 ml sterile saline, respectively. Ten ml of gel were applied on the injured sites with a dual valve applicator as previously. As controls, a group of animals received no treatment, and another group received 10 ml saline.
# After treatment of the injured areas, the peritoneum and abdominal wall were closed with 2-0 Ethilon and 3-0 Dexon, respectively. The skin was closed with 2-0 Ethilon. Animals were allowed to awaken and had food and water ad libitum. Buprenorphine 0.02-0.03 mg/kg was administered sc 8-12 hours interval until 48 hours post-surgery. The animals were sacrificed 1 week after the second laparotomy by intravenous injection of sodium pentobarbital. Adhesions were scored in two ways. (i) Quality of adhesions was scored as follows: Adhesions were scored using a modification of a reported method (Burns J W, Skinner K, Colt J, Sheidlin A, Bronson R, Yaacobi Y, et al. Prevention of tissue injury and postsurgical adhesions by precoating tissues with hyaluronic acid solutions. Journal of Surgical Research 1995;59:644-652, which is incorporated herein by reference). Score 0=no adhesion, score 1=tissue adherence that would separate with gravity, score 2=tissue adherence separable by blunt dissection, score 3=adhesion requiring sharp dissection. If there were multiple adhesions of different scores, we chose the higher one as a representative score. (ii) Area of score 2 or 3 adhesions was measured for quantitative evaluation of the adhesions. The location of adhesions (whether they include suture sites or not; location and number of cecal haustra involved in the adhesion) and weight changes were recorded. Tissues recovered from the necropsy were fixed in 10% formalin, embedded in paraffin, sectioned, and stained with hematoxylin and eosin for histological examination.
# Peritoneal adhesions were induced in female albino rabbits (Oryctolagus cuniculus; New Zealand White) (3±0.5 kg) through repeated laparotomies as described in our previous study [tPA]. Briefly, cecum abrasion and excision of abdominal wall were performed to induce de novo adhesions (Yeo et al. In situ cross-linkable hyaluronic acid hydrogels prevent post-operative abdominal adhesions in a rabbit model. Biomaterials 2006;27:4698-4705, which is incorporated herein by reference). A second laparotomy was performed after 1 week to cut the adhesions and introduce additional injuries to the same locations as those injured in the first laparotomy. […]
molecule,measurement,setting,value
CCCC1O[C@@H]2C[C@H]3[C@@H]4CCC5=CC(=O)C=C[C@]5(C)[C@H]4[C@@H](O)C[C@]3(C)[C@]2(C(=O)CO)O1 (some centres unmarked) [Budesonide],solubility in water,[1],< 100 µg/mL
same,solubility at 24 h,[2],27 µg/mL
C[C@@H]1C[C@H]2[C@@H]3CCC4=CC(=O)C=C[C@]4(C)[C@@]3(F)[C@@H](O)C[C@]2(C)[C@@]1(O)C(=O)CO [Dexamethasone],concentrations with no effect on production of IL-6,[3],lower than 10^−9 M
same,concentrations with no effect on production of TNF-α,[4],lower than 10^−9 M
HA-adipic dihydrazide [HA-ADH],effect of polymers on mesothelial cell viability (MTT),[5],small reductions in cell viability
"hyaluronic acid [HA, reference compound]",effect of polymers on mesothelial cell viability (MTT),[5],small reductions in cell viability
tPA: bolus of tPA solution (2.2 mg Activase) in the absence of HAX,"Qualitative (score) % frequency, score 0",[6]; 10 ml applied on injured sites,25%
same,"Qualitative (score) % frequency, score 1",[6]; 10 ml applied on injured sites,0%
same,"Qualitative (score) % frequency, score 2",[6]; 10 ml applied on injured sites,0%
same,"Qualitative (score) % frequency, score 3",[6]; 10 ml applied on injured sites,75%
same,"Quantitative (adhesion area), median",[6]; area of score 2 or 3 adhesions,2.4 cm^2
